What was measured:
Experiment in all cases: Fluorometric Assay
Settings in all cases: pH 7.4; 25 °C
Caspase-1 = target: T1, Caspase-1 (Homo sapiens, UniProt P29466)
T1 sequence (P29466 whole entry): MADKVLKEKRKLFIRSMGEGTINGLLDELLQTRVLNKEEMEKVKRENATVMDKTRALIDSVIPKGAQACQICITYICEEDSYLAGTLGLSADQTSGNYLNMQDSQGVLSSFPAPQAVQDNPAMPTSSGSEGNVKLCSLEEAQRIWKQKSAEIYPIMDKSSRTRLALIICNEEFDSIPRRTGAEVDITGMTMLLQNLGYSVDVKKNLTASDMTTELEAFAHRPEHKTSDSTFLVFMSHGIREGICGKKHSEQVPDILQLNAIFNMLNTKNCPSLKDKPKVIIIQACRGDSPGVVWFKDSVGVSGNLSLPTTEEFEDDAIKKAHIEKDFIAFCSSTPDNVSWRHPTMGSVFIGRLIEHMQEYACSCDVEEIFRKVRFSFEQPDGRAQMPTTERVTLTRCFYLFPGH
Procedure: (§1) The effectiveness of compounds against the activity of human recombinant caspase-1-8 was measured using fluorometric assays. Assays were carried out in a 96-well flat bottom, polystyrene plates. […] Kinetic data were collected over a 15 min assay run at room temperature. IC50 values were calculated through a four parameter fit curve using the computer application SOFTmax PRO. Ki(apparent) values were calculated using the following equation: Ki(app) = IC50/(1 + [substrate]/Km).

Caspase-2 = target: T2, Caspase-2 (Homo sapiens, UniProt P42575)
T2 sequence (P42575 whole entry): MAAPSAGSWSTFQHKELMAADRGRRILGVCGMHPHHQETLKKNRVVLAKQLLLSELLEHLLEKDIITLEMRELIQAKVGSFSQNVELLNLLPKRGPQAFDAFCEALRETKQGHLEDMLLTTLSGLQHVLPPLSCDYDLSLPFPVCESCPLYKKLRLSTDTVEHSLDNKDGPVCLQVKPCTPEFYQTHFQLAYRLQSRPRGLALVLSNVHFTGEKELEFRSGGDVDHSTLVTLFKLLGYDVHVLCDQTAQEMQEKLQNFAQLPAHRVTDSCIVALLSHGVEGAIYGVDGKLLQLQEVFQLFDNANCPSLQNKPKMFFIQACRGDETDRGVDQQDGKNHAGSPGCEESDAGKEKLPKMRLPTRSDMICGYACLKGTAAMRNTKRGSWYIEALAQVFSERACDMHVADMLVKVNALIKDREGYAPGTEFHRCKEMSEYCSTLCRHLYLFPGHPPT
Procedure: as §1

Caspase-3 = target: T3, Caspase-3 (Homo sapiens, UniProt P42574)
T3 sequence (P42574 whole entry): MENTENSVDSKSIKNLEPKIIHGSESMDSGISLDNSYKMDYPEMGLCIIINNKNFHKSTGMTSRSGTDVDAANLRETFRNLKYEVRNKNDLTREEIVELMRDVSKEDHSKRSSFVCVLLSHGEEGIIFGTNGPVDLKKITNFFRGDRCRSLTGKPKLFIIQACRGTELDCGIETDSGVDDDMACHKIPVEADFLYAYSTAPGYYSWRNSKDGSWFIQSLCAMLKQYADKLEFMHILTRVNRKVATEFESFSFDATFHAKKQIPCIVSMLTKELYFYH
Procedure: as §1

Caspase-4 = target: T4, Caspase-4 (Homo sapiens, UniProt P49662)
T4 sequence (P49662 whole entry): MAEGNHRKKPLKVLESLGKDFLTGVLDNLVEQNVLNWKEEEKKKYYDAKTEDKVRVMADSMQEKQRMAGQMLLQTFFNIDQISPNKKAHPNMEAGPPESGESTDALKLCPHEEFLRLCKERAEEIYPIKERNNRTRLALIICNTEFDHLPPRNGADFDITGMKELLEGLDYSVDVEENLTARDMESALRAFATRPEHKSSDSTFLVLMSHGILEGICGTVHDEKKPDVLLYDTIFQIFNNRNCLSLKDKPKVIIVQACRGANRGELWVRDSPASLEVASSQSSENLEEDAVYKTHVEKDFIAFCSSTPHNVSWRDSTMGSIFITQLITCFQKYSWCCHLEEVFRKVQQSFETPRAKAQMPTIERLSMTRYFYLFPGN
Procedure: as §1

Caspase-6 = target: T5, Caspase-6 (Homo sapiens, UniProt P55212)
T5 sequence (P55212 whole entry): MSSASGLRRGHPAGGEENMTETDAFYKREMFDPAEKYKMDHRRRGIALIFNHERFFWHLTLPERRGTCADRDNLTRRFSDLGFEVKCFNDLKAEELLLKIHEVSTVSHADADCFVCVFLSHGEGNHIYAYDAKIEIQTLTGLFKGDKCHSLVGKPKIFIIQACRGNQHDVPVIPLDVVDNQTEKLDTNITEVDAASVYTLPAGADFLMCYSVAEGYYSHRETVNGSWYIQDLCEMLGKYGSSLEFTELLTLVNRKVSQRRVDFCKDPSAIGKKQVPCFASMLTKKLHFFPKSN
Procedure: as §1

Caspase-7 = target: T6, Caspase-7 (Homo sapiens, UniProt P55210)
T6 sequence (P55210 whole entry): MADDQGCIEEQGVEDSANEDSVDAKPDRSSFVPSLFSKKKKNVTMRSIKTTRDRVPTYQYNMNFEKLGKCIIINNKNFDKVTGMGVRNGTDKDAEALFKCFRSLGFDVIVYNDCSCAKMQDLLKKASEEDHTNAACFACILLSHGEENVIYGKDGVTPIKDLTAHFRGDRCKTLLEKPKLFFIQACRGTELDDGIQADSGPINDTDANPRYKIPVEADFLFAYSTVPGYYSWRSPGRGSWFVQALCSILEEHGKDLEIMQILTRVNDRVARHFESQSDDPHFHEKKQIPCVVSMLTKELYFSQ
Procedure: as §1

Caspase-8 = Caspase-8 (Homo sapiens, UniProt Q14790)
Caspase-8, sequence (Q14790 217-374 limits assumed): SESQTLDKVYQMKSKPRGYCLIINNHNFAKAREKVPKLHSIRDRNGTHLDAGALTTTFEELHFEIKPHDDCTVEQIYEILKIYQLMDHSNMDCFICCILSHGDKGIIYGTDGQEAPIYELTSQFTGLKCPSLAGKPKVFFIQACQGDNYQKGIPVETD
Caspase-8, sequence (Q14790 385-479 limits assumed): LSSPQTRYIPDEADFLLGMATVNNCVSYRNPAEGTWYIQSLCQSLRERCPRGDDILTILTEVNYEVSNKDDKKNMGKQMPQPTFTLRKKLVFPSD
Procedure: as §1

Ki (Caspase-1): 1500 nM
Ki (Caspase-2): 11000 nM
Ki (Caspase-3): 30 nM
Ki (Caspase-4): 38000 nM
Ki (Caspase-6): 120 nM
Ki (Caspase-7): 90 nM
Ki (Caspase-8): 810 nM
SMILES: O=C(O)C[C@H](NC(=O)c1ccc(CNS(=O)(=O)c2ccc(O)c(C(=O)O)c2)nc1)C(=O)CSCc1ccccc1Cl [(S)-5-({5-[1-Carboxymethyl-3-(2-chloro-benzylsulfanyl)-2-oxo-propylcarbamoyl]pyridin-2-ylmethyl}sulfamoyl)-2-hydroxy-benzoic Acid]
